The record followed here is patent US5565480A, “Substituted histidines” (SmithKline Beecham Corporation, priority 1995, dated 1996).

The assay relates to pressor response to exogenous angiotensin II. The experiment in a line: Inhibition of pressor response to angiotensin II in conscious rats. It counts as in vivo. As to conditions: Rattus norvegicus, iv, change in mean arterial pressure, read-out: IC50, dose of compound needed to produce 50% inhibition of the control response to angiotensin II. On the procedure:
Angiotensin II antagonist activity of the compounds of Formula (I) is assessed by in and in vivo methods. In vitro antagonist activity is determined by the ability of the compounds to compete with ^125 I-angiotensin II for binding to vascular angiotensin II receptors and by their ability to antagonize the contractile response to angiotensin II in the isolated rabbit aorta. In vivo activity is evaluated by the efficacy of the compounds to inhibit the pressor response to exogenous angiotensin II in conscious rats and to lower blood pressure in a rat model of renin dependent hypertension.
Rats are prepared with indwelling femoral arterial and venous catheters and a stomach tube (Gellai et al., Kidney Int. 15:419, 1979). Two to three days following surgery the rats are placed in a restrainer and blood pressure is continuously monitored from the arterial catheter with a pressure transducer and recorded on a polygraph. The change in mean arterial pressure in response to intravenous injections of […] angiotensin II is compared at various time points prior to and following the administration of the compounds intravenously or orally at doses of 3 to 300 mg/kg. The dose of compound needed to produce 50% inhibition of the control response to angiotensin II (IC50) is used to estimate the potency of the compounds. […]

As for `CCCCc1ncc(C[C@H](NC(=O)CCC)C(=O)O)n1Cc1ccccc1Cl` [Example 8, 3-[(2-Chlorophenyl)methyl]-2-n-butyl-N-butyrylhistidine], the ED50 came out at 10 mg/kg.
